The target of assay [1] is T1, NLRP3 (Homo sapiens, UniProt Q96P20). Description: THP-1 cells pyroptosis assay (LPS + nigericin, resazurin readout; THP IC50). It counts as cell-based. The arrangement: Seed THP-1 cells (25,000 cells/well) containing 1.0 μg/ml LPS in 40 μl of RPMI medium; host or cells: THP-1 cells. Summed up:
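Human THP-1 cells, 25,000/well in serum-free RPMI with 1 μg/ml LPS, treated 3 hrs at 37° C with compound (8-point half-log, 10 μM top, 0.1% DMSO), then 5 μM nigericin 1 hr. Viability by 100 μM resazurin fluorescence after 1-2 hrs; IC50 by 4-parameter fit.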
For orientation: Alamar Blue is a resazurin reagent that responds to reducing activity.

Assay [2] deals with T1, NLRP3. As to the kind of experiment: Human whole blood IL1β release assay (LPS + nigericin, AlphaLisa IL-1β; HWB IC50). It counts as cell-based. Further details: Human whole blood in Li-heparin tubes was obtained from healthy donors from a volunteer donor panel; from tissue; host or cells: human whole blood from healthy donors. The note with it: IL-1β release. Summed up:
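Donor Li-heparin whole blood primed with 1 μg/ml LPS, given compound (8-point half-log series, 10 μM top; DMSO 0.1% final) for 3 h at 37 °C, then nigericin 10 μM final for 1 h. Supernatant IL-1β measured by AlphaLisa; IC50 from 4-parameter variable-slope fit.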

Structures can show the parent of a compound that is named as a salt. Some results are limits rather than exact numbers.

T1 sequence (Q96P20 whole entry): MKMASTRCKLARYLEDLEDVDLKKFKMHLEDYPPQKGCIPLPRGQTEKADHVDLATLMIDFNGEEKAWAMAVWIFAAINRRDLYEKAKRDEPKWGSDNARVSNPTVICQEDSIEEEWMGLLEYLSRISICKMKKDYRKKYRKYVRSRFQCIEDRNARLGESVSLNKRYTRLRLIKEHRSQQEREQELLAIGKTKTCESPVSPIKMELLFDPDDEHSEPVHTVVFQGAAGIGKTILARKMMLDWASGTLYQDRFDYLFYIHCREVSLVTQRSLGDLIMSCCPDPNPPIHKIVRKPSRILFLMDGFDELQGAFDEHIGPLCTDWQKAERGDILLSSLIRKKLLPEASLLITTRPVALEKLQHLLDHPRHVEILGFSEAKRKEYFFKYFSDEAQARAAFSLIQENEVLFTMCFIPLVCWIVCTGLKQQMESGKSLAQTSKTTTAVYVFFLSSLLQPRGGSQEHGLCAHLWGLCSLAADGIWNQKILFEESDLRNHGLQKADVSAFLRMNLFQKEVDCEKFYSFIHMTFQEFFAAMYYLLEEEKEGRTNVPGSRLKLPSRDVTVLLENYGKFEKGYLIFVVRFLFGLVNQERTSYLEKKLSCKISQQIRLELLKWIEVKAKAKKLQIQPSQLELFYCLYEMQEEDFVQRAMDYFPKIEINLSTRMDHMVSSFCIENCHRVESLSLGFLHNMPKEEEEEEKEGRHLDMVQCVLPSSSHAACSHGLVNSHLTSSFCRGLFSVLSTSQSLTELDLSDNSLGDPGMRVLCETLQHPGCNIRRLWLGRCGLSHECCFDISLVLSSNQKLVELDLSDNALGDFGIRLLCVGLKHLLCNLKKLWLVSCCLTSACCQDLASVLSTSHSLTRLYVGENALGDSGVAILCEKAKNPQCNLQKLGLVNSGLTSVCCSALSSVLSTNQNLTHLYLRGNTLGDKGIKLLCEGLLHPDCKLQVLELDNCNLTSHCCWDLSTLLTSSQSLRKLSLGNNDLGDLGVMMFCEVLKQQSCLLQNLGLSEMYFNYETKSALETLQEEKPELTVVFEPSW

The term IC50 denotes the concentration at which inhibition is half-maximal. On to `CC(C)(CN1CCC1)n1ccc(S(=O)(=O)NC(=O)Nc2c(-c3ccnc(OC4CC4)c3)ccc3c2CCC3)n1` [Example 274, 1-(1-(Azetidin-1-yl)-2-methylpropan-2-yl)-N-((5-(2-cyclopropoxypyridin-4-yl)-2,3-dihydro-1H-inden-4-yl)carbamoyl)-1H-pyrazole-3-sulfonamide, sodium salt], for which the IC50 on NLRP3 [1] and at NLRP3 [2] was not above 0.5 µM in each case.
As to `O=C(Nc1c(-c2ccnc(OC(F)F)c2)ccc2c1CCO2)NS(=O)(=O)c1ccn(C2CCC2)n1` [Example 275, 1-Cyclobutyl-N-((5-(2-(difluoromethoxy)pyridin-4-yl)-2,3-dihydrobenzofuran-4-yl)carbamoyl)-1H-pyrazole-3-sulfonamide, sodium salt], the IC50 on NLRP3 [1] and on NLRP3 [2] was not above 0.5 µM in each case.
Take `O=C(Nc1c(-c2ccnc(OC3CC3)c2)ccc2c1CCO2)NS(=O)(=O)c1ccn(C2CC2)n1` [Example 276, N-((5-(2-Cyclopropoxypyridin-4-yl)-2,3-dihydrobenzofuran-4-yl)carbamoyl)-1-cyclopropyl-1H-pyrazole-3-sulfonamide, sodium salt]: the IC50 at NLRP3 [1] is not above 0.5 µM; on NLRP3 [2] it was not above 1 µM.
The corresponding values for `O=C(Nc1c(-c2ccnc(OC(F)F)c2)ccc2c1CCO2)NS(=O)(=O)c1ccn(C2CC2)n1` [Example 277, 1-Cyclopropyl-N-((5-(2-(difluoromethoxy)pyridin-4-yl)-2,3-dihydrobenzofuran-4-yl)carbamoyl)-1H-pyrazole-3-sulfonamide, sodium salt] are not above 0.5 µM and not above 0.5 µM.
On to `[2H]C([2H])([2H])Oc1cc(-c2ccc3c(c2NC(=O)NS(=O)(=O)c2ccn(C4CC4)n2)CCO3)ccn1` [Example 278, 1-Cyclopropyl-N-((5-(2-(methoxy-d3)pyridin-4-yl)-2,3-dihydrobenzofuran-4-yl)carbamoyl)-1H-pyrazole-3-sulfonamide, sodium salt], for which the IC50 on NLRP3 [1] and at NLRP3 [2] was not above 0.5 µM throughout.
With `[2H]C([2H])([2H])Oc1cc(-c2ccc3c(c2NC(=O)NS(=O)(=O)c2ccn(C4CC4)n2)CCC3)ccn1` [Example 279, 1-Cyclopropyl-N-((5-(2-(methoxy-d3)pyridin-4-yl)-2,3-dihydro-1H-inden-4-yl)carbamoyl)-1H-pyrazole-3-sulfonamide, sodium salt], the IC50 at NLRP3 [1] and at NLRP3 [2] was not above 0.5 µM each time.
`[2H]C([2H])([2H])Oc1cc(-c2ccc3c(c2NC(=O)NS(=O)(=O)c2ccn(C4CCC4)n2)CCO3)ccn1` [Example 280, 1-Cyclobutyl-N-((5-(2-(methoxy-d3)pyridin-4-yl)-2,3-dihydrobenzofuran-4-yl)carbamoyl)-1H-pyrazole-3-sulfonamide, sodium salt]: the half-inhibitory concentration (IC50) on NLRP3 [1] and on NLRP3 [2] was not above 0.5 µM in each case.
Turning to `COc1cc(-c2ccc3c(c2NC(=O)NS(=O)(=O)c2ccn(C4CCC4)n2)CCO3)c(F)cn1` [Example 281, 1-Cyclobutyl-N-((5-(5-fluoro-2-methoxypyridin-4-yl)-2,3-dihydrobenzofuran-4-yl)carbamoyl)-1H-pyrazole-3-sulfonamide, sodium salt], the IC50 at NLRP3 [1] and on NLRP3 [2] was not above 0.5 µM in each case.
In the case of `COc1cc(-c2ccc3c(c2NC(=O)NS(=O)(=O)c2ccc(C(C)C)c(CN(C)C)c2)CCC3)ccn1` [Example 282, 3-((Dimethylamino)methyl)-4-isopropyl-N-((5-(2-methoxypyridin-4-yl)-2,3-dihydro-1H-inden-4-yl)carbamoyl)benzenesulfonamide, sodium salt], the IC50 at NLRP3 [1] and at NLRP3 [2] was not above 0.5 µM in each case.
On to `COc1cc(-c2ccc3c(c2NC(=O)NS(=O)(=O)OC2CCN(C)C2)CCC3)ccn1` (stereo not drawn) [Example 284, 1-Methylpyrrolidin-3-yl (5-(2-methoxypyridin-4-yl)-2,3-dihydro-1H-inden-4-yl)carbamoylsulfamate], for which the IC50 was not above 0.5 µM on NLRP3 [1] and not above 1 µM on NLRP3 [2].
For the compound `CC(C)n1ccc(S(=O)(=O)NC(=O)Nc2c(-c3ccnc(N)c3)ccc3c2CCC3)n1` [Example 285, N-((5-(2-Aminopyridin-4-yl)-2,3-dihydro-1H-inden-4-yl)carbamoyl)-1-isopropyl-1H-pyrazole-3-sulfonamide], the IC50 on NLRP3 [1] is not above 0.5 µM; on NLRP3 [2], not above 5 µM.
Taken in the same sequence, the figures for `CC(C)n1ccc(S(=O)(=O)NC(=O)Nc2c(-c3ccnc(Oc4ccccc4)c3)ccc3c2CCC3)n1` [Example 286, 1-Isopropyl-N-((5-(2-phenoxypyridin-4-yl)-2,3-dihydro-1H-inden-4-yl)carbamoyl)-1H-pyrazole-3-sulfonamide, sodium salt] were not above 0.5 µM and not above 10 µM.
The corresponding values for `CC(C)n1ccc(S(=O)(=O)NC(=O)Nc2c(-c3ccnc(OC4CCN(C)CC4)c3)ccc3c2CCC3)n1` [Example 287, 1-Isopropyl-N-((5-(2-((1-methylpiperidin-4-yl)oxy)pyridin-4-yl)-2,3-dihydro-1H-inden-4-yl)carbamoyl)-1H-pyrazole-3-sulfonamide, sodium salt] are not above 0.5 µM and not above 0.5 µM.
Taken in the same sequence, the figures for `CC(C)n1ccc(S(=O)(=O)NC(=O)Nc2c(-c3ccnc(OC4CCCOC4)c3)ccc3c2CCC3)n1` (stereo not drawn) [Example 288, 1-Isopropyl-N-((5-(2-((tetrahydro-2H-pyran-3-yl)oxy)pyridin-4-yl)-2,3-dihydro-1H-inden-4-yl)carbamoyl)-1H-pyrazole-3-sulfonamide, sodium salt] were not above 0.5 µM and not above 5 µM.
As to `COCC(C)Oc1cc(-c2ccc3c(c2NC(=O)NS(=O)(=O)c2ccn(C(C)C)n2)CCC3)ccn1` (stereo not drawn) [Example 289, 1-Isopropyl-N-((5-(2-((1-methoxypropan-2-yl)oxy)pyridin-4-yl)-2,3-dihydro-1H-inden-4-yl)carbamoyl)-1H-pyrazole-3-sulfonamide, sodium salt], the figures for the IC50 on NLRP3 [1] and at NLRP3 [2] were not above 0.5 µM and not above 5 µM, respectively.
Taken in the same sequence, the figures for `[2H]C([2H])([2H])Oc1cc(-c2ccc3c(c2NC(=O)NS(=O)(=O)c2ccn(C4CCC4)n2)CCC3)ccn1` [Example 290, 1-Cyclobutyl-N-((5-(2-(methoxy-d3)pyridin-4-yl)-2,3-dihydro-1H-inden-4-yl)carbamoyl)-1H-pyrazole-3-sulfonamide, sodium salt] were not above 0.5 µM and not above 0.5 µM.
Regarding `CC(C)n1ccc(S(=O)(=O)NC(=O)Nc2c(-c3ccnc(OC4CCOC4)c3)ccc3c2CCC3)n1` (stereo not drawn) [Example 291, 1-Isopropyl-N-((5-(2-((tetrahydrofuran-3-yl)oxy)pyridin-4-yl)-2,3-dihydro-1H-inden-4-yl)carbamoyl)-1H-pyrazole-3-sulfonamide, sodium salt], the results for the half-maximal inhibitory concentration (IC50) on NLRP3 [1] and on NLRP3 [2] were not above 0.5 µM and not above 1 µM, respectively.
Consider `CC(C)n1ccc(S(=O)(=O)NC(=O)Nc2c(-c3ccnc(OC4CCOCC4)c3)ccc3c2CCC3)n1` [Example 292, 1-Isopropyl-N-((5-(2-((tetrahydro-2H-pyran-4-yl)oxy)pyridin-4-yl)-2,3-dihydro-1H-inden-4-yl)carbamoyl)-1H-pyrazole-3-sulfonamide, sodium salt], for which the IC50 on NLRP3 [1] is not above 0.5 µM; on NLRP3 [2], not above 1 µM.
The corresponding values for `COc1cc(-c2ccc3c(c2NC(=O)NS(=O)(=O)c2coc(C4CC4)n2)CCC3)ccn1` [Example 293, 2-Cyclopropyl-N-((5-(2-methoxypyridin-4-yl)-2,3-dihydro-1H-inden-4-yl)carbamoyl)oxazole-4-sulfonamide, sodium salt] are not above 0.5 µM and not above 5 µM.
Consider `CC(C)n1ccc(S(=O)(=O)NC(=O)Nc2c(-c3ccnc(OC4CCC4)c3)ccc3c2CCC3)n1` [Example 294, N-((5-(2-Cyclobutoxypyridin-4-yl)-2,3-dihydro-1H-inden-4-yl)carbamoyl)-1-isopropyl-1H-pyrazole-3-sulfonamide, sodium salt], for which the concentration for half-maximal inhibition (IC50) on NLRP3 [1] is not above 0.5 µM; at NLRP3 [2] it was not above 5 µM.
Taken in the same sequence, the figures for `CC(C)n1ccc(S(=O)(=O)NC(=O)Nc2c(-c3ccnc(C4CC4)c3)ccc3c2CCC3)n1` [Example 295, N-((5-(2-Cyclopropylpyridin-4-yl)-2,3-dihydro-1H-inden-4-yl)carbamoyl)-1-isopropyl-1H-pyrazole-3-sulfonamide, sodium salt] were not above 0.5 µM and not above 1 µM.
Taken in the same sequence, the figures for `COCc1cc(-c2ccc3c(c2NC(=O)NS(=O)(=O)c2ccn(C(C)C)n2)CCC3)ccn1` [Example 296, 1-Isopropyl-N-((5-(2-(methoxymethyl)pyridin-4-yl)-2,3-dihydro-1H-inden-4-yl)carbamoyl)-1H-pyrazole-3-sulfonamide, sodium salt] were not above 0.5 µM and not above 0.5 µM.
Taken in the same sequence, the figures for `CC(C)n1ccc(S(=O)(=O)NC(=O)Nc2c(-c3ccnc(CO)c3)ccc3c2CCC3)n1` [Example 298, N-((5-(2-(Hydroxymethyl)pyridin-4-yl)-2,3-dihydro-1H-inden-4-yl)carbamoyl)-1-isopropyl-1H-pyrazole-3-sulfonamide] were not above 0.5 µM and not above 1 µM.
For `CC(C)n1ccc(S(=O)(=O)NC(=O)Nc2c(-c3ccnc(OCCO)c3)ccc3c2CCC3)n1` [Example 299, N-((5-(2-(2-Hydroxyethoxy)pyridin-4-yl)-2,3-dihydro-1H-inden-4-yl)carbamoyl)-1-isopropyl-1H-pyrazole-3-sulfonamide], the IC50 at NLRP3 [1] and at NLRP3 [2] was not above 0.5 µM in each case.

The values above are taken from US20200361895A1, “NOVEL SULFONAMIDE CARBOXAMIDE COMPOUNDS” (Inflazome Limited, priority 2017, published 2020).
